Test results: ChEMBL document CHEMBL1148857, “In vitro and in vivo profile of 5-[(4'-trifluoromethyl-biphenyl-2-carbonyl)-amino]-1H-indole-2-carboxylic acid benzylmethyl carbamoylamide (dirlotapide), a novel potent MTP inhibitor for obesity” (Bioorg Med Chem Lett, 2007)
pIC50: −log10 of the molar value. The source made the active and inactive calls. The calls are words filed in the database; no cut-off is given here.

Experiments:
[1] = target: Histamine H2 receptor (Homo sapiens) (UniProt P25021); test: Inhibition of histamine H2 receptor at 1 uM
[2] = Permeability from apical to basolateral side of the Caco-2 cell membrane at 1 uM; type: ADME, cell-based; conditions: human
[3] = target: 5-hydroxytryptamine receptor 7 (Homo sapiens) (UniProt P34969); test: Inhibition of 5HT7 receptor at 1 uM
[4] = target: Muscarinic acetylcholine receptor M1 (Homo sapiens) (UniProt P11229); test: Inhibition of muscarinic M1 receptor at 1 uM
[5] = target: Muscarinic acetylcholine receptor M4 (Homo sapiens) (UniProt P08173); test: Inhibition of muscarinic M4 receptor at 1 uM
[6] = target: Delta-type opioid receptor (Homo sapiens) (UniProt P41143); test: Inhibition of delta opioid receptor at 1 uM
[7] = target: Mu-type opioid receptor (Homo sapiens) (UniProt P35372); test: Inhibition of mu opioid receptor at 1 uM
Homo sapiens = species: Homo sapiens; test: Inhibition of N-type calcium channel at 1 uM
[8] = Plasma clearance in Beagle dog at 1 mg/kg, iv; type: ADME, organism-based, Canis lupus familiaris; design: dose 1 mg/kg, route intravenous
[9] = Half life in portal cannulated Beagle dog at 1 mg/kg, iv; type: ADME, organism-based, Canis lupus familiaris; design: dose 1 mg/kg, route intravenous; conditions: in vivo
[10] = AUC (0 to t) in monkey at 0.5 mg/kg, iv; type: ADME, organism-based, Macaca mulatta; design: dose 0.5 mg/kg, route intravenous; conditions: rhesus monkey, plasma
[11] = Half life in Beagle dog at 0.5 mg/kg, po; type: ADME, organism-based, Canis lupus familiaris; design: dose 0.5 mg/kg, route oral; conditions: in vivo
[12] = Cmax in rat at 30 mg/kg, po after 2.8 hrs; type: ADME, organism-based; design: dose 30 mg/kg, route oral; conditions: in vivo
[13] = Cmax in Beagle dog at 0.5 mg/kg, po; type: ADME, organism-based, Canis lupus familiaris; design: dose 0.5 mg/kg, route oral; conditions: in vivo
[14] = Bioavailability in rat at 30 mg/kg, po; type: ADME, organism-based; conditions: in vivo
[15] = Bioavailability in portal cannulated Beagle dog at 1 mg/kg, po; type: ADME, organism-based, Canis lupus familiaris; conditions: in vivo
[16] = Permeability from basolateral to apical side of the Caco-2 cell membrane at 1 uM in presence of calcium; type: ADME, cell-based; conditions: human
Cytochrome P450 2C19 = Cytochrome P450 2C19 (Homo sapiens, UniProt P33261); test: Inhibition of CYP2C19; type: ADME
Cytochrome P450 2D6 = Cytochrome P450 2D6 (Homo sapiens, UniProt P10635); test: Inhibition of CYP2D6; type: ADME
Cytochrome P450 2D6, sequence (P10635 whole entry): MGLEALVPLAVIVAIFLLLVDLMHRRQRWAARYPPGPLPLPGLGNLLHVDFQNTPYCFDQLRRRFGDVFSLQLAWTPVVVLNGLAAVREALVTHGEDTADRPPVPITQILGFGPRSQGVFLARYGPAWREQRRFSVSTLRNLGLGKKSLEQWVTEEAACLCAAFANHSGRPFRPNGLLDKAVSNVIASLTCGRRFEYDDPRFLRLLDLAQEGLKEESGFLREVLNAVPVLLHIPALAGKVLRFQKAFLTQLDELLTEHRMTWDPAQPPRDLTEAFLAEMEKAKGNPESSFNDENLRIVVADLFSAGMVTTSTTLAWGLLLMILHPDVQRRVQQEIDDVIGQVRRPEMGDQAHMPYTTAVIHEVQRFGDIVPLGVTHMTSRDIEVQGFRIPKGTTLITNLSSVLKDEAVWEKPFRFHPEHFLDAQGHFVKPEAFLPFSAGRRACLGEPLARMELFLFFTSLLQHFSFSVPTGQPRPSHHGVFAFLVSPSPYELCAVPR

Cytochrome P450 2C19, sequence (P33261 whole entry): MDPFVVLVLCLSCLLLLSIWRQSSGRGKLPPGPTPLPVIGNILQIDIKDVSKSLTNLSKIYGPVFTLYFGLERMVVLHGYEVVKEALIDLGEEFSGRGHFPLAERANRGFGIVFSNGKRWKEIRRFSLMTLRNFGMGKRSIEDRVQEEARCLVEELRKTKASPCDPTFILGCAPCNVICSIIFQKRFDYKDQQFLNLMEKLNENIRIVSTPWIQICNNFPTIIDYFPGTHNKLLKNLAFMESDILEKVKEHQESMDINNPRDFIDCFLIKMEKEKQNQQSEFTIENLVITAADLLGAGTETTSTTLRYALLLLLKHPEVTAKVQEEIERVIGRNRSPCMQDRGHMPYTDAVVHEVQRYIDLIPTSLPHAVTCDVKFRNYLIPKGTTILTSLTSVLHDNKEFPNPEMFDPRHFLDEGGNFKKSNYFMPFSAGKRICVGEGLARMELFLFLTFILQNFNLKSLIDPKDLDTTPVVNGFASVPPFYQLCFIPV
Delta-type opioid receptor (Homo sapiens), sequence (P41143 whole entry): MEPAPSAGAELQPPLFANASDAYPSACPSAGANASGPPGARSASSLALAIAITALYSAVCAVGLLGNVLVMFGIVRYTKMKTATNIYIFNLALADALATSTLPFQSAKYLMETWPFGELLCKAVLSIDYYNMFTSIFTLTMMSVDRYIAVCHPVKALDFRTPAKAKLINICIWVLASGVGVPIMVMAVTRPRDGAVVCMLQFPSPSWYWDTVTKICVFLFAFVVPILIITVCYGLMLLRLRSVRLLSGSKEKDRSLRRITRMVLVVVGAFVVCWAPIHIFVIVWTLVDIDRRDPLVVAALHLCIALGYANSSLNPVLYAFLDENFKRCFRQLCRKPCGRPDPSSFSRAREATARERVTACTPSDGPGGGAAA
Muscarinic acetylcholine receptor M1 (Homo sapiens), sequence (P11229 whole entry): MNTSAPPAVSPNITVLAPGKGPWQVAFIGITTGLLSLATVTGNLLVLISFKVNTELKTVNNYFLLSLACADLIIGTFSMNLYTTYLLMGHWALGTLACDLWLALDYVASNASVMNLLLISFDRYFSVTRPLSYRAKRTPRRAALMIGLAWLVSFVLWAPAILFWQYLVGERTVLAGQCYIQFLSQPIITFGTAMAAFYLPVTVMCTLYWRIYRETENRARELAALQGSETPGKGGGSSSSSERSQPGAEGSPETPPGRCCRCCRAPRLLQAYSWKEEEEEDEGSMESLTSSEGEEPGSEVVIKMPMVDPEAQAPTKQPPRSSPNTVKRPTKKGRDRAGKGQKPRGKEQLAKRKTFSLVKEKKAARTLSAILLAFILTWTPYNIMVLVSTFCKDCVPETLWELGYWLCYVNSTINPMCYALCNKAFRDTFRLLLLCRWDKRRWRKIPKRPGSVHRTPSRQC
Mu-type opioid receptor (Homo sapiens), sequence (P35372 whole entry): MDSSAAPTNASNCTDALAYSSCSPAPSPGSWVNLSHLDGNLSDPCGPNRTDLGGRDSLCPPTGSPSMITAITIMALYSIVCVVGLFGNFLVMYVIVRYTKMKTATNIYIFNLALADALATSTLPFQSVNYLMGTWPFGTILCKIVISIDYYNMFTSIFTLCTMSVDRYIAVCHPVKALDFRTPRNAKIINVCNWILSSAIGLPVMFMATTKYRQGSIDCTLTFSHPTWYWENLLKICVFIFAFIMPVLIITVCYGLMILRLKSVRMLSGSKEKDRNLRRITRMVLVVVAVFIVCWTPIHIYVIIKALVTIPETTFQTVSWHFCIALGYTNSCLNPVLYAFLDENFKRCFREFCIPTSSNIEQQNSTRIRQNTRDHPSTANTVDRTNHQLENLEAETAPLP
5-hydroxytryptamine receptor 7 (Homo sapiens), sequence (P34969 whole entry): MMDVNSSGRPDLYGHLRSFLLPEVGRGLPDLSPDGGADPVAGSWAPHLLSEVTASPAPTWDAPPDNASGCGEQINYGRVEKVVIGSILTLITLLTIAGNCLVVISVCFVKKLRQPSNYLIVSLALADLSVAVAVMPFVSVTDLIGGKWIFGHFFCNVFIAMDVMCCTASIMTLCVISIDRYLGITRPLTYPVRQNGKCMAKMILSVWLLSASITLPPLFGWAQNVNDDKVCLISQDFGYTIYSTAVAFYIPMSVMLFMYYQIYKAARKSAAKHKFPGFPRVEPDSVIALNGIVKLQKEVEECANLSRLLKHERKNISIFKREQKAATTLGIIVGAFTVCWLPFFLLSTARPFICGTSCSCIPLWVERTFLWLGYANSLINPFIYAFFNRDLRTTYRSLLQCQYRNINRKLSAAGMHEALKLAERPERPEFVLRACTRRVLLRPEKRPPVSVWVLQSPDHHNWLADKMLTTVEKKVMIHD
Histamine H2 receptor (Homo sapiens), sequence (P25021 whole entry): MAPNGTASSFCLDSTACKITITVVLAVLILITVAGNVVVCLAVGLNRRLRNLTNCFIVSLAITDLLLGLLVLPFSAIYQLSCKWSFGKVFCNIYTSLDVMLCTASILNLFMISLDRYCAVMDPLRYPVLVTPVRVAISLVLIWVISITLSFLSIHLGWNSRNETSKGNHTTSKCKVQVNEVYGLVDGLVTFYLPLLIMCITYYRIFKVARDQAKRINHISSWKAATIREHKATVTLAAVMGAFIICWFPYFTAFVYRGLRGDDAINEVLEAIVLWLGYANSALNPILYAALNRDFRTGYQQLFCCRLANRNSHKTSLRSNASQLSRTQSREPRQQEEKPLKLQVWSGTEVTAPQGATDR
Muscarinic acetylcholine receptor M4 (Homo sapiens), sequence (P08173 whole entry): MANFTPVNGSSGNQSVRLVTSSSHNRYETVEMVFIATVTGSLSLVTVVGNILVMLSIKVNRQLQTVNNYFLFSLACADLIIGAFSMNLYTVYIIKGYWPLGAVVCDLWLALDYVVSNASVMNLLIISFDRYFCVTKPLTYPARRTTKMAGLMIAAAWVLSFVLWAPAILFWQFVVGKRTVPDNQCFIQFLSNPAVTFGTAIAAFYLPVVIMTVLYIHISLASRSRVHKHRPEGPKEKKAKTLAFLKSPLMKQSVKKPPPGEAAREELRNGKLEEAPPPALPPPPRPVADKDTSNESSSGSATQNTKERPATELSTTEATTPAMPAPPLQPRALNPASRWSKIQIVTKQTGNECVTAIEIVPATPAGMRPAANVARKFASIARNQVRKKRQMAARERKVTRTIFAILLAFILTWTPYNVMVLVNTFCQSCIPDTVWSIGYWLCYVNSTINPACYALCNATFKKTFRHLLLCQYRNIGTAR

Activity [1]: inactive
Papp A→B at 1 µM [2]: 0.9 ×10⁻⁶ cm/s
Activity [3]: inactive
Activity [4]: inactive
Activity [5]: inactive
Activity [6]: inactive
Activity [7]: inactive
Activity (Homo sapiens): inactive
clearance [8]: 4.7 mL/min/kg
half-life [9]: 7.8 h
AUC(0-t) [10]: 684 ng·h/mL
half-life [11]: 14.1 h
Cmax [12]: 21 ng/mL
Cmax [13]: 31.1 ng/mL
bioavailability [14]: 2.3%
bioavailability [15]: 10.6%
Papp B→A at 1 µM [16]: 0.4 ×10⁻⁶ cm/s
pIC50 (Cytochrome P450 2C19): < 4.52
pIC50 (Cytochrome P450 2D6): < 4.52
Compound: CN(Cc1ccccc1)C(=O)[C@@H](NC(=O)c1cc2cc(NC(=O)c3ccccc3-c3ccc(C(F)(F)F)cc3)ccc2n1C)c1ccccc1 [DIRLOTAPIDE]
